Assay results published in patent US9200319B2, “Nucleotides and nucleosides and methods for their use in DNA sequencing” (Lasergen, Inc., priority 2008, dated 2015).
Where “and” joins values, the source holds several entries; their conditions need not be identical. Identical values can stand only once. Like-named read-outs stand apart in the source and are kept apart here.

What was measured:
[1] = biological target: T1, THERMINATOR™ DNA polymerase (Thermococcus sp., UniProt Q56366, A485L/D141A/E143A); experiment: biochemical; design: species or system Thermococcus species 9° N-7
T1 construct: purchased New England Biolabs
Protocol: Natural and modified nucleotides were tested for incorporation efficiency using the “polymerase end point assay” (Wu et al., 2007, which is incorporated herein by reference). This assay examines incorporation efficiency on matched and mismatched template bases. Incorporation efficiency is measured by determining the concentration at which the compound incorporates on half the primer-template complexes (IC50). Titrations of increasing compound concentration were performed to generate curves from which the IC50 can be determined.
(§1) The sequence of the template DNA is selected depending on which compound will be tested. For example, the first interrogation base after the primer in the template sequence is the complement base of the compound when measuring incorporation efficiency, and one of three mismatched bases when measuring mismatch discrimination properties.
(§2) To the annealed reaction, a DNA polymerase (e.g., THERMINATOR™ DNA polymerase, 0.25 units per reaction, New England Biolabs), 1× Thermopol Buffer, and a known concentration of either natural or modified nucleotide are added to each 10 μL reaction and incubated at 75° C. for 10 minutes, cooled on ice, and quenched with 10 μL of stop solution (98% formamide: 10 mM Na2EDTA, pH=8.0, 25 mg/ml Blue Dextran). Stopped reactions are heated to 75° C. for 30 seconds to denature the DNA, and then placed on ice. The extension products are analyzed on a 10% Long Ranger (Lonza) polyacrylamide gel using an ABI model 377 DNA sequencer. Additional details are provided in Example 1, below.
Polymerase Assays. Natural and modified nucleotides were tested for incorporation efficiency using the “polymerase end point assay” (Wu et al., 2007, which is incorporated herein by reference). This assay examines incorporation efficiency on matched and mismatched template bases. Incorporation efficiency is measured by determining the concentration at which the compound incorporates on half the primer-template complexes (IC50). Titrations of increasing compound concentration were performed to generate curves from which the IC50 can be determined.
The assay is performed by first annealing 5 nM of BODIPY-FL labeled primer with 40 nM template DNA in 1× Thermopol Buffer (20 mM Tris-HCl, pH 8.8; 10 mM (NH4)2SO4; 10 mM KCl; 2 mM MgSO4; 0.1% Triton X-100, New England BioLabs).
as §1, with “The temperature cycle to complete primer annealing is 80° C. for 30 seconds, 57° C. for 30 seconds, then cooling to 4° C. The” for “The”
as §2, with “sequencer.” for “sequencer. Additional details are provided in Example 1, below.”

[2] = biological target: T1, THERMINATOR™ DNA polymerase; experiment: termination assay, weighted sum analysis on homopolymer repeat template; assay type: biochemical, Thermococcus species 9° N-7; conditions: 1.0 = complete termination after a single incorporation
Protocol: A weighted sum of 1.0 represents complete termination after a single incorporation, while a value greater than 1.0 indicates incorporation beyond the +1 position (e.g. nucleotide read through). […] The assay is performed as described above for the polymerase end-point assay, except that the template used is a homopolymer repeat, thereby allowing for multiple incorporations of a given nucleotide compound.

[3] = Adj IC50 Conc (nM), adjusted IC50 used to set the concentrations of the termination assay
[4] = IC50 for incorporation, concentration at which the compound incorporates on half the primer-template complexes, complement template base
[5] = adjusted IC50 used to set the concentrations of the termination assay, read-out: Adj IC50 Conc
[6] = concentration at which the compound incorporates on half the primer-template complexes, complement template base, read-out: IC50 for incorporation

T1 sequence (Q56366 whole entry D141A/E143A/A485L): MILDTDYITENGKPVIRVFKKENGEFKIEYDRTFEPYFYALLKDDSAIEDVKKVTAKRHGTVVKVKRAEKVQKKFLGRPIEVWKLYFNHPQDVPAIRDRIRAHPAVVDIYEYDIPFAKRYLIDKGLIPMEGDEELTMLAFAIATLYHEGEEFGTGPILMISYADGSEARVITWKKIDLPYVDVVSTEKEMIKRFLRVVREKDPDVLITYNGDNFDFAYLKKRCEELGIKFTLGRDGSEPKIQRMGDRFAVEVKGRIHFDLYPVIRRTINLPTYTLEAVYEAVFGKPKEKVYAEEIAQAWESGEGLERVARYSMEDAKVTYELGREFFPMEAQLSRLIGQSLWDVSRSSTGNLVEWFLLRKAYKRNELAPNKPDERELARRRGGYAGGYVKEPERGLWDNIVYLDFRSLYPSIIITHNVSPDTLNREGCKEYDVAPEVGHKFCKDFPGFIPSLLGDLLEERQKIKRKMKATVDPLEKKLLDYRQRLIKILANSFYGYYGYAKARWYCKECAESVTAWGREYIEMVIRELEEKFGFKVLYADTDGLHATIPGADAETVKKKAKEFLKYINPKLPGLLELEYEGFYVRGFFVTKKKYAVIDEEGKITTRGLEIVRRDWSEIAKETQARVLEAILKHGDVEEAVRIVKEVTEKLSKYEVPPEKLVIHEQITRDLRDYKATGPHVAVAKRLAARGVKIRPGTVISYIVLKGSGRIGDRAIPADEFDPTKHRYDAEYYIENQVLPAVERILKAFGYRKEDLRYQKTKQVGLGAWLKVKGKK

Compound	IC50 [1, 3]	IC50 [1, 4]	Average Weighted Sum ± SD ([2]; 1x IC50)	Average Weighted Sum ± SD ([2]; 5x IC50)	Average Weighted Sum ± SD ([2]; 25x IC50)	IC50 [1, 5]	IC50 [1, 6]
O=c1[nH]c(=O)n([C@H]2C[C@H](O)[C@@H](COP(=O)(O)OP(=O)(O)OP(=O)(O)O)O2)cc1COCc1ccccc1-c1ccccc1 [6p010, 5-(2-phenylbenzyloxy)methyl-2′-deoxyuridine-5′-triphosphate]	1.4 nM	1.4 nM	0.46 ± 0.1	1.1 ± 0.1	1.7 and 1.7 ± 0.3	–	–
CC(C)(C)c1ccccc1COCc1cn([C@H]2C[C@H](O)[C@@H](COP(=O)(O)OP(=O)(O)OP(=O)(O)O)O2)c(=O)[nH]c1=O [6p024, 5-(2-tert-butylbenzyloxy)methyl-2′-deoxyuridine-5′-triphosphate]	0.7 nM	0.7 nM	0.44 ± 0.1	1.2 ± 0.1	1.9 ± 0.1	–	–
Nc1ncnc2c1c(COCc1ccccc1[N+](=O)[O-])cn2[C@H]1C[C@H](O)[C@@H](COP(=O)(O)OP(=O)(O)OP(=O)(O)O)O1 [5p085, 7-(2-nitrobenzyloxy)methyl-7-deaza-2′-deoxyadenosine-5′-triphosphate]	–	3.6 ± 0.3 nM	–	–	–	–	–
Cc1ccccc1COCc1cn([C@H]2C[C@H](O)[C@@H](COP(=O)(O)OP(=O)(O)OP(=O)(O)O)O2)c(=O)[nH]c1=O [5p147, 5-(2-methylbenzyloxy)methyl-2′-deoxyuridine-5′-triphosphate]	1.4 nM	1.4 nM	0.51 ± 0.1	1.5 ± 0.3	2.6 ± 0.4	–	–
O=c1[nH]c(=O)n([C@H]2C[C@H](O)[C@@H](COP(=O)(O)OP(=O)(O)OP(=O)(O)O)O2)cc1COCc1ccccc1 [5p145, 5-(benzyloxy)methyl-2′-deoxyuridine-5′-triphosphate]	1.4 nM	1.4 nM	0.43 ± 0.1	1.3 ± 0.3	2.9 and 2.9 ± 0.4	–	–
CC(C)(C)C(OCc1cn([C@H]2C[C@H](O)[C@@H](COP(=O)(O)OP(=O)(O)OP(=O)(O)O)O2)c(=O)[nH]c1=O)c1ccccc1[N+](=O)[O-] (single isomer, unassigned) [3p075, 5-[(R or S)-1-(2-nitrophenyl)-2,2-dimethyl-1-propyloxy]methyl-2′-deoxyuridine-5′-triphosphate]	–	3 nM	–	–	–	–	–
Cc1cn([C@H]2C[C@H](O)[C@@H](COP(=O)(O)OP(=O)(O)OP(=O)(O)O)O2)c(=O)[nH]c1=O [dTTP, reference compound]	–	–	0.68	3.0	12.2	2.1 nM	–
Nc1ccn([C@H]2C[C@H](O)[C@@H](COP(=O)(O)OP(=O)(O)OP(=O)(O)O)O2)c(=O)n1 [dCTP, reference compound]	–	–	–	–	–	–	3 ± 0.6 nM
5-(α-isopropyl-2-nitrobenzyloxy)methyl-2′-dUTP-6-ROX [6p044]	–	–	–	–	–	–	18 ± 1 nM
Cc1cccc(C)c1COCc1cn([C@H]2C[C@H](O)[C@@H](COP(=O)(O)OP(=O)(O)OP(=O)(O)O)O2)c(=O)[nH]c1=O [6p015, 5-(2,6-dimethylbenzyloxy)methyl-2′-deoxyuridine-5′-triphosphate]	1.4 nM	1.4 nM	0.56 ± 0.1	1.5 ± 0.1	2.2 ± 0.1	–	–
CC(C)C(Nc1ncnc2c1ncn2[C@H]1C[C@H](O)[C@@H](COP(=O)(O)OP(=O)(O)OP(=O)(O)O)O1)c1ccccc1[N+](=O)[O-] (single isomer, unassigned) [6p063, N^6-(α-isopropyl-2-nitrobenzyl)-2′-dATP]	–	12 ± 1 nM	–	–	–	–	–
CC(C)[C@H](OCc1cn([C@H]2C[C@H](O)[C@@H](COP(=O)(O)OP(=O)(O)OP(=O)(O)O)O2)c(=O)nc1N)c1ccccc1[N+](=O)[O-] [3p065, 5-[(S)-1-(2-nitrophenyl)-2-methyl-propyloxy]methyl-2′-deoxycytidine-5′-triphosphate]	–	1.1 ± 0.1 nM	–	–	–	–	–
CC(Nc1ncnc2c1ncn2[C@H]1C[C@H](O)[C@@H](COP(=O)(O)OP(=O)(O)OP(=O)(O)O)O1)c1ccccc1[N+](=O)[O-] (mixture of isomers) [3p006, N^6-(α-methyl-2-nitrobenzyl)-2′-dATP]	–	8.5 ± 1.8 nM	–	–	–	–	–
CC(OCc1cn([C@H]2C[C@H](O)[C@@H](COP(=O)(O)OP(=O)(O)OP(=O)(O)O)O2)c(=O)[nH]c1=O)c1ccccc1[N+](=O)[O-] (mixture of isomers) [2p043, 5-(α-methyl-nitrobenzyl-oxymethyl)-2′-dUTP]	–	–	0.53 ± 0.06	1.1 ± 0.0	1.7±0.1	1.7 nM	1.7 ± 0.2 nM
CC(Oc1nc(N)nc2c1ncn2[C@H]1C[C@H](O)[C@@H](COP(=O)(O)OP(=O)(O)OP(=O)(O)O)O1)c1ccccc1[N+](=O)[O-] (mixture of isomers) [2p143, O^6-(α-methyl-2-nitrobenzyl)-2′-dGTP]	–	10 nM	–	–	–	–	–
CC(C)C(OCc1cn([C@H]2C[C@H](O)[C@@H](COP(=O)(O)OP(=O)(O)OP(=O)(O)O)O2)c(=O)[nH]c1=O)c1ccccc1[N+](=O)[O-] (mixture of isomers) [2p148, 5-(α-isopropyl-2-nitrobenzyloxy)methyl-2′-dUTP]	2.1 nM	–	0.59 ± 0.02	0.99 ± 0.01	1.0 and 1.0 ± 0.01	–	2.3 ± 0.1 nM
Nc1nc(OCc2ccccc2[N+](=O)[O-])c2ncn([C@H]3C[C@H](O)[C@@H](COP(=O)(O)OP(=O)(O)OP(=O)(O)O)O3)c2n1 [2p108, O^6-(2-nitrobenzyl)-2′-dGTP]	–	4 ± 0.7 nM	–	–	–	–	–
CC(C)c1ccccc1COCc1cn([C@H]2C[C@H](O)[C@@H](COP(=O)(O)OP(=O)(O)OP(=O)(O)O)O2)c(=O)[nH]c1=O [5p149, 5-(2-isopropylbenzyloxy)methyl-2′-deoxyuridine-5′-triphosphate]	1.4 nM	1.4 nM	0.53 ± 0.1	1.3 ± 0.1	2.2 ± 0.2	–	–
5-(α-isopropyl-2-nitrobenzyloxy)methyl-2′-dUTP-6-FAM [6p094]	–	–	–	–	–	–	8.1 ± 0.2 nM
5-(α-isopropyl-2-nitrobenzyloxy)methyl-2′-dUTP-5-R6G [6p005]	–	–	–	–	–	–	15 ± 1 nM
C^7-(α-isopropyl-2-nitrobenzyloxy)methyl-2′-dATP-6-CR110 [5p130-LP2]	–	–	–	–	–	–	15 ± 3 nM
6-ROX labeled 7-{(R)-1-[4-(3-amino-1-propynyl)-2-nitrophenyl]-2-methyl-propyloxy}methyl-7-deaza-2′-deoxyguanosine-5′-triphosphate [6p034]	–	–	–	–	–	–	7.4 ± 0.1 nM
CC(C)[C@H](OCc1cn([C@H]2C[C@H](O)[C@@H](COP(=O)(O)OP(=O)(O)OP(=O)(O)O)O2)c(=O)[nH]c1=O)c1ccccc1[N+](=O)[O-] [3p063, 5-[(S)-1-(2-nitrophenyl)-2-methyl-propyloxy]methyl-2′-deoxyuridine-5′-triphosphate]	–	2 nM	–	–	–	–	–
